Experimental findings from patent publication US20090068744A1, “VITREOUS CELL LINE” (SENJU PHARMACEUTICAL CO., LTD., priority 2006, published 2009) are described below.

The first assay concerns HAS2 expression by a vitreous cell line. The experiment in a line: HAS2 mRNA expression by RT-PCR after cytokine stimulation of the vitreous cell line. Format: cell-based, swine. Particulars: cell line transfected with Smad2, 3 or 4; FIG. 5. The procedure: Next, expression of hyaluronic acid synthase (HAS)2 and the effect of PDGF-BB and/or TGF-β1 on the hyaluronic acid production in the established vitreous cell line were examined. The expression was observed by RT-PCR.
To be specific, when the vitreous cell line was 50-60% confluent, the medium of the cells was exchanged with DMEM containing 1% bovine serum and, after culturing for 24 hr, the cells were stimulated with TGF-β1 (10 ng/ml) and PDGF-BB (10 ng/ml). In a part of the examination, Smad2, 3 or 4 was transfected into the cell line after 6 hr from the medium exchange. The cells and culture supernatant were recovered at 3, 6, 24 and 48 hr after the cytokine stimulation (FIG. 2). Total RNA was extracted from the cells, cDNA was synthesized, and RT-PCR was performed using primers specific to HAS2. Using Roche FastStart High Fidelity PCR System, PCR was performed on Gene Amp PCR System 9700 (Applied Biosystems). The PCR conditions were as follows:
95° C. 2 min.→(95° C. 30 seconds→X° C. 30 seconds→72° C. […])×Y cycle→72° C. 7 min
X=60, Y=25 . . . beta-Actin
Turning to “TGF-β1: cytokine used to stimulate the vitreous cell line (10 ng/ml)”, the “expression of HAS2 under forced expression of Smad2, 3 or 4” value is recorded as “resulted in the expression of HAS2”.

The subject of another assay is VEGF mRNA expression by a vitreous cell line. The experiment in a line: VEGF mRNA expression by RT-PCR after cytokine stimulation of the vitreous cell line. The note with it: cytokine 10 ng/ml, up to 48 hours; FIG. 7, FIG. 9. Format: cell-based, swine. The protocol: Changes of VEGF expression due to cytokine stimulation in the vitreous cell line established in Example 1 were examined. The expression of VEGF at an mRNA level was examined by RT-PCR, and the expression at a protein level was examined by ELISA.
To be specific, when the vitreous cell line reached 50-60% confluent, the medium for the cells was exchanged with DMEM containing 1% bovine serum. […] Total RNA was extracted from the stimulated cells, cDNA was synthesized, and PCR was conducted using VEGF primers. The medium of the stimulated cells was used for ELISA. Since an appropriate antibody to swine VEGF is not available, VEGF protein concentration was measured by ELISA using an antibody to human VEGF, and the result was calculated as a reference value led from a human VEGF standard product. PCR was conducted using TOYOBO KOD plus kit and Gene PCR System 9700 (Applied Biosystem). The conditions of PCR were as follows:
95° C. 120 seconds; (95° C. 15 seconds, 62° C. 30 seconds, 68° C. 30 seconds)×30 cycles; 68° C. 90 seconds. ELISA was entrusted to Mitsubishi BCL.
As for “IL-1β: cytokine used to stimulate the vitreous cell line (10 ng/ml)”, the “VEGF mRNA expression level” value was “a significant change in the VEGF mRNA expression level was not observed”. Still for that read-out and setting: for “IL-6: cytokine named among other cytokines used for stimulation” the value was “a significant change in the VEGF mRNA expression level was not observed”; for “PDGF-AA: cytokine used to stimulate the vitreous cell line (10 ng/ml)”, “a significant change in the VEGF mRNA expression level was not observed”; for TGFβ, “a significant change in the VEGF mRNA expression level was not observed”. On the same count and under the same terms, for TNFα the value was “a significant change in the VEGF mRNA expression level was not observed”.
